Experimental data from patent US10519148B2, “Acrylic acid derivative, preparation method and use in medicine thereof” (Zhejiang Hisun Pharmaceutical Co., Ltd., priority 2015, dated 2019).

Tested on: MCF-7 carcinoma xenografts
Assay: Tumor growth inhibition in SCID mice bearing MCF-7 carcinoma xenografts
Format: in vivo
Settings: for TGI (%) Day 4: Day 4, MCF-7 tumor bearing SCID mice; for TGI (%) Day 7: Day 7, MCF-7 tumor bearing SCID mice; for TGI (%) Day 11: Day 11, MCF-7 tumor bearing SCID mice; for TGI (%) Day 14: Day 14, MCF-7 tumor bearing SCID mice; for TGI (%) Day 18: Day 18, MCF-7 tumor bearing SCID mice; for TGI (%) Day 21: Day 21, MCF-7 tumor bearing SCID mice; for effect on tumor growth inhibition in human breast cancer MCF-7 bearing mice (in words): doses of 30 mg/kg and 50 mg/kg, within 21 days
Description: 1. Purpose of the Experiment
This test was used to evaluate the inhibitory effect of the test compounds, which were orally administered daily for 21 days, on the growth of transplanted tumor in MCF-7 tumor-bearing SCID mice.
2. Preparation of the Test Substance
Solvent: 20% PEG400, 80% deionized water;
Preparation of the test compounds: an appropriate amount of the test compounds were weighed, dissolved in PEG400 (20%), and then 80% amount of the sterilized deionized water was added, shocked evenly. The test compounds were freshly prepared daily before administration.
Varieties and strains: SCID mice, SPF, female, 7 to 9 weeks old (16 to 22 grams), 100 mice, purchased from Beijing Huafu kang Biotechnology Co., Ltd., 100 mice with good health were used for the experiment, with the environment adaption time of 5 to 7 days.
4. MCF-7 Tumor Cell Culture
MCF-7 cells were cultured in RPMI1640 medium containing 10% fetal bovine serum, cultured in 37° C., 5% CO2 incubator. Cells in logarithmic phase were taken before inoculating, digested with 0.25% trypsin, and then the cells were washed with PBS, resuspended in medium without serum and counted. The cell concentration was adjusted to 7.5×10^7 cells/mL (1:1 Matrigel, Extracellular Matrix Proteins, 356234, BD).
5. Animal Inoculation and Grouping
Each mouse was inoculated subcutaneously in the right axilla with 0.2 mL cell suspension (1.5×10^7 cells/mouse) under aseptic conditions. Estrogen was administrated subcutaneously after inoculation. When the tumor grows to volume of about 150-250 mm^3, the mice with similar tumor volume and good tumor shape were selected (shape to be a single spherical as much as possible, no irregular shape or multiple tumors together), 10 mice per group.
6. Animal Administration and Observation
The formation of tumor in the inoculated part of each group of animals was observed. The long diameter (Y) and the short diameter (X) of the tumor nodules were measured with a vernier caliper twice a week and calculated according to the following formula: The volume of tumor nodules (V): V=(X^2Y)/2.
Evaluation index of antitumor activity: tumor growth inhibition rate TGI (%), relative tumor proliferation rate T/C (%). • Tumor growth inhibition rate TGI (%): TGI (%)=(Vc−Vt)/Vc×100. Where Vc is the tumor volume of the model control group and Vt is the tumor volume of the compound group.
Relative tumor volume (RTV): RTV=Vn/V0. Where V0 is the tumor volume just before the first time administered, and Vn is the tumor volume at the time of measurement.
Relative tumor proliferation rate: T/C (%): T/C (%)=TRTV/CRTV×100. Where, TRTV was RTV of the treatment group and CRTV was RTV of negative control group.

SMILES: C[C@@H]1Cc2c([nH]c3ccccc23)[C@@H](c2c(F)cc(/C=C/C(=O)O)cc2F)N1CC1(F)CC1 [Example 1, (E)-3-(3,5-difluoro-4-((1R,3R)-2-((1-fluorocyclopropyl)methyl)-3-methyl-2,3,4,9-tetrahydro-1H-pyrido[3,4-b]indol-1-yl)phenyl)acrylic acid]
- TGI (%) Day 4 (30 mg/kg po qd): 12.3%
- TGI (%) Day 7 (30 mg/kg po qd): 24.4%
- TGI (%) Day 11 (30 mg/kg po qd): 34.5%
- TGI (%) Day 14 (30 mg/kg po qd): 52.7%
- TGI (%) Day 18 (30 mg/kg po qd): 65.7%
- TGI (%) Day 21 (30 mg/kg po qd): 76.7%
- TGI (%) Day 4 (50 mg/kg po qd): 16.9%
- TGI (%) Day 7 (50 mg/kg po qd): 26.5%
- TGI (%) Day 11 (50 mg/kg po qd): 38.8%
- TGI (%) Day 14 (50 mg/kg po qd): 54.2%
- TGI (%) Day 18 (50 mg/kg po qd): 66.9%
- TGI (%) Day 21 (50 mg/kg po qd): 78.8%
- effect on tumor growth inhibition in human breast cancer MCF-7 bearing mice (in words): significant effect on tumor growth inhibition

SMILES: C[C@@H]1Cc2c([nH]c3cccc(F)c23)[C@@H](c2c(F)cc(/C=C/C(=O)O)cc2F)N1CC1(F)CC1 [Example 12, (E)-3-(3,5-difluoro-4-((1R,3R)-5-fluoro-2-((1-fluorocyclopropyl)methyl)-3-methyl-2,3,4,9-tetrahydro-1H-pyrido[3,4-b]indol-1-yl)phenyl)acrylic acid]
- TGI (%) Day 4 (30 mg/kg po qd): 12.1%
- TGI (%) Day 7 (30 mg/kg po qd): 25.9%
- TGI (%) Day 11 (30 mg/kg po qd): 41.5%
- TGI (%) Day 14 (30 mg/kg po qd): 53.6%
- TGI (%) Day 18 (30 mg/kg po qd): 62.0%
- TGI (%) Day 21 (30 mg/kg po qd): 73.4%
- TGI (%) Day 4 (50 mg/kg po qd): 12.4%
- TGI (%) Day 7 (50 mg/kg po qd): 25.4%
- TGI (%) Day 11 (50 mg/kg po qd): 43.8%
- TGI (%) Day 14 (50 mg/kg po qd): 59.6%
- TGI (%) Day 18 (50 mg/kg po qd): 69.8%
- TGI (%) Day 21 (50 mg/kg po qd): 79.4%
- effect on tumor growth inhibition in human breast cancer MCF-7 bearing mice (in words): significant effect on tumor growth inhibition
